# Test results published in patent US10906873B2, “Substituted cyclic amides as herbicides” (FMC Corporation, priority 2015, dated 2021).
# Tested on: foxtail, giant (giant foxtail, Setaria faberii)
# Experiment: Test A postemergence, foxtail, giant
# Format: in vivo
# Settings: 125 g ai/ha, 0 to 100 scale
# In short: (§1)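 Pre: seeds planted in loam/sand, directed soil spray. Post: 2–10 cm plants, 1–2 leaf. Formulation: non-phytotoxic solvent + surfactant. Greenhouse ~10 d; visual injury vs untreated, 0 = no effect, 100 = complete control.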
row,SMILES,"Plant response rating, Foxtail, Giant"
1,"O=C1NCC(/C=C/c2ccccc2)C1C(=O)Nc1cccc(F)c1F (stereo not drawn) [Compound 33, N-(2,3-difluorophenyl)-2-oxo-4-[(1E)-2-phenylethenyl]-3-pyrrolidinecarboxamide]",70

# Same assay, conditions: 500 g ai/ha, 0 to 100 scale
row,SMILES,"Plant response rating, Foxtail, Giant"
1,"O=C1NCC(/C=C/c2ccccc2)C1C(=O)Nc1cccc(F)c1F (stereo not drawn) [Compound 33, N-(2,3-difluorophenyl)-2-oxo-4-[(1E)-2-phenylethenyl]-3-pyrrolidinecarboxamide]",70

# Tested on: ragweed (common ragweed, Ambrosia elatior)
# Experiment: Test A postemergence, ragweed
# Format: in vivo
# Settings: 125 g ai/ha, 0 to 100 scale
# In short: as §1
row,SMILES,"Plant response rating, Ragweed"
1,"O=C1NCC(/C=C/c2ccccc2)C1C(=O)Nc1cccc(F)c1F (stereo not drawn) [Compound 33, N-(2,3-difluorophenyl)-2-oxo-4-[(1E)-2-phenylethenyl]-3-pyrrolidinecarboxamide]",10

# Same assay, conditions: 500 g ai/ha, 0 to 100 scale
row,SMILES,"Plant response rating, Ragweed"
1,"O=C1NCC(/C=C/c2ccccc2)C1C(=O)Nc1cccc(F)c1F (stereo not drawn) [Compound 33, N-(2,3-difluorophenyl)-2-oxo-4-[(1E)-2-phenylethenyl]-3-pyrrolidinecarboxamide]",10

# Tested on: foxtail, giant (giant foxtail, Setaria faberii)
# Experiment: Test A preemergence, foxtail, giant
# Format: in vivo
# Settings: 125 g ai/ha, 0 to 100 scale
# In short: as §1
row,SMILES,"Plant response rating, Foxtail, Giant"
1,"O=C1NCC(/C=C/c2ccccc2)C1C(=O)Nc1cccc(F)c1F (stereo not drawn) [Compound 33, N-(2,3-difluorophenyl)-2-oxo-4-[(1E)-2-phenylethenyl]-3-pyrrolidinecarboxamide]",50

# Same assay, conditions: 500 g ai/ha, 0 to 100 scale
row,SMILES,"Plant response rating, Foxtail, Giant"
1,"O=C1NCC(/C=C/c2ccccc2)C1C(=O)Nc1cccc(F)c1F (stereo not drawn) [Compound 33, N-(2,3-difluorophenyl)-2-oxo-4-[(1E)-2-phenylethenyl]-3-pyrrolidinecarboxamide]",90

# Tested on: pigweed (Amaranthus retroflexus)
# Experiment: Test A preemergence, pigweed
# Format: in vivo
# Settings: 125 g ai/ha, 0 to 100 scale
# In short: as §1
row,SMILES,"Plant response rating, Pigweed"
1,"O=C1NCC(/C=C/c2ccccc2)C1C(=O)Nc1cccc(F)c1F (stereo not drawn) [Compound 33, N-(2,3-difluorophenyl)-2-oxo-4-[(1E)-2-phenylethenyl]-3-pyrrolidinecarboxamide]",0

# Same assay, conditions: 500 g ai/ha, 0 to 100 scale
row,SMILES,"Plant response rating, Pigweed"
1,"O=C1NCC(/C=C/c2ccccc2)C1C(=O)Nc1cccc(F)c1F (stereo not drawn) [Compound 33, N-(2,3-difluorophenyl)-2-oxo-4-[(1E)-2-phenylethenyl]-3-pyrrolidinecarboxamide]",0

# Tested on: kochia (Kochia scoparia)
# Experiment: Test A preemergence, kochia
# Format: in vivo
# Settings: 125 g ai/ha, 0 to 100 scale
# In short: as §1
row,SMILES,"Plant response rating, Kochia"
1,"O=C1NCC(/C=C/c2ccccc2)C1C(=O)Nc1cccc(F)c1F (stereo not drawn) [Compound 33, N-(2,3-difluorophenyl)-2-oxo-4-[(1E)-2-phenylethenyl]-3-pyrrolidinecarboxamide]",0

# Same assay, conditions: 500 g ai/ha, 0 to 100 scale
row,SMILES,"Plant response rating, Kochia"
1,"O=C1NCC(/C=C/c2ccccc2)C1C(=O)Nc1cccc(F)c1F (stereo not drawn) [Compound 33, N-(2,3-difluorophenyl)-2-oxo-4-[(1E)-2-phenylethenyl]-3-pyrrolidinecarboxamide]",20

# Tested on: wheat (Triticum aestivum)
# Experiment: Test A postemergence, wheat
# Format: in vivo
# Settings: 125 g ai/ha, 0 to 100 scale
# In short: as §1
row,SMILES,"Plant response rating, Wheat"
1,"O=C1NCC(/C=C/c2ccccc2)C1C(=O)Nc1cccc(F)c1F (stereo not drawn) [Compound 33, N-(2,3-difluorophenyl)-2-oxo-4-[(1E)-2-phenylethenyl]-3-pyrrolidinecarboxamide]",0

# Same assay, conditions: 500 g ai/ha, 0 to 100 scale
row,SMILES,"Plant response rating, Wheat"
1,"O=C1NCC(/C=C/c2ccccc2)C1C(=O)Nc1cccc(F)c1F (stereo not drawn) [Compound 33, N-(2,3-difluorophenyl)-2-oxo-4-[(1E)-2-phenylethenyl]-3-pyrrolidinecarboxamide]",0

# Tested on: pigweed (Amaranthus retroflexus)
# Experiment: Test A postemergence, pigweed
# Format: in vivo
# Settings: 125 g ai/ha, 0 to 100 scale
# In short: as §1
row,SMILES,"Plant response rating, Pigweed"
1,"O=C1NCC(/C=C/c2ccccc2)C1C(=O)Nc1cccc(F)c1F (stereo not drawn) [Compound 33, N-(2,3-difluorophenyl)-2-oxo-4-[(1E)-2-phenylethenyl]-3-pyrrolidinecarboxamide]",0

# Same assay, conditions: 500 g ai/ha, 0 to 100 scale
row,SMILES,"Plant response rating, Pigweed"
1,"O=C1NCC(/C=C/c2ccccc2)C1C(=O)Nc1cccc(F)c1F (stereo not drawn) [Compound 33, N-(2,3-difluorophenyl)-2-oxo-4-[(1E)-2-phenylethenyl]-3-pyrrolidinecarboxamide]",0

# Tested on: barnyardgrass (Echinochloa crus-galli)
# Experiment: Test A postemergence, barnyardgrass
# Format: in vivo
# Settings: 125 g ai/ha, 0 to 100 scale
# In short: as §1
row,SMILES,"Plant response rating, Barnyardgrass"
1,"O=C1NCC(/C=C/c2ccccc2)C1C(=O)Nc1cccc(F)c1F (stereo not drawn) [Compound 33, N-(2,3-difluorophenyl)-2-oxo-4-[(1E)-2-phenylethenyl]-3-pyrrolidinecarboxamide]",50

# Same assay, conditions: 500 g ai/ha, 0 to 100 scale
row,SMILES,"Plant response rating, Barnyardgrass"
1,"O=C1NCC(/C=C/c2ccccc2)C1C(=O)Nc1cccc(F)c1F (stereo not drawn) [Compound 33, N-(2,3-difluorophenyl)-2-oxo-4-[(1E)-2-phenylethenyl]-3-pyrrolidinecarboxamide]",90

# Tested on: ragweed (common ragweed, Ambrosia elatior)
# Experiment: Test A preemergence, ragweed
# Format: in vivo
# Settings: 125 g ai/ha, 0 to 100 scale
# In short: as §1
row,SMILES,"Plant response rating, Ragweed"
1,"O=C1NCC(/C=C/c2ccccc2)C1C(=O)Nc1cccc(F)c1F (stereo not drawn) [Compound 33, N-(2,3-difluorophenyl)-2-oxo-4-[(1E)-2-phenylethenyl]-3-pyrrolidinecarboxamide]",0

# Same assay, conditions: 500 g ai/ha, 0 to 100 scale
row,SMILES,"Plant response rating, Ragweed"
1,"O=C1NCC(/C=C/c2ccccc2)C1C(=O)Nc1cccc(F)c1F (stereo not drawn) [Compound 33, N-(2,3-difluorophenyl)-2-oxo-4-[(1E)-2-phenylethenyl]-3-pyrrolidinecarboxamide]",0

# Tested on: ryegrass, It. (Italian ryegrass, Lolium multiflorum)
# Experiment: Test A postemergence, ryegrass, It.
# Format: in vivo
# Settings: 125 g ai/ha, 0 to 100 scale
# In short: as §1
row,SMILES,"Plant response rating, Ryegrass, It."
1,"O=C1NCC(/C=C/c2ccccc2)C1C(=O)Nc1cccc(F)c1F (stereo not drawn) [Compound 33, N-(2,3-difluorophenyl)-2-oxo-4-[(1E)-2-phenylethenyl]-3-pyrrolidinecarboxamide]",0

# Same assay, conditions: 500 g ai/ha, 0 to 100 scale
row,SMILES,"Plant response rating, Ryegrass, It."
1,"O=C1NCC(/C=C/c2ccccc2)C1C(=O)Nc1cccc(F)c1F (stereo not drawn) [Compound 33, N-(2,3-difluorophenyl)-2-oxo-4-[(1E)-2-phenylethenyl]-3-pyrrolidinecarboxamide]",0

# Tested on: ducksalad (Heteranthera limosa)
# Experiment: Test B flooded paddy test, ducksalad
# Format: in vivo
# Settings: Flood, 250 g ai/ha; scale of 0 to 100 where 0 is no effect and 100 is complete control; 13 to 15 d
# In short: (§2)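 Ratings use a 0-100 visual scale, where 100 is complete control, and compare treated plants with controls after 13 to 15 d of greenhouse growth. Compound went straight into paddy water kept 3 cm over the soil surface, applied to seedlings at the 2-leaf stage.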
row,SMILES,"Plant response rating, Ducksalad"
1,"O=C1NCC(/C=C/c2ccccc2)C1C(=O)Nc1cccc(F)c1F (stereo not drawn) [Compound 33, N-(2,3-difluorophenyl)-2-oxo-4-[(1E)-2-phenylethenyl]-3-pyrrolidinecarboxamide]",95

# Tested on: kochia (Kochia scoparia)
# Experiment: Test A postemergence, kochia
# Format: in vivo
# Settings: 125 g ai/ha, 0 to 100 scale
# In short: as §1
row,SMILES,"Plant response rating, Kochia"
1,"O=C1NCC(/C=C/c2ccccc2)C1C(=O)Nc1cccc(F)c1F (stereo not drawn) [Compound 33, N-(2,3-difluorophenyl)-2-oxo-4-[(1E)-2-phenylethenyl]-3-pyrrolidinecarboxamide]",0

# Same assay, conditions: 500 g ai/ha, 0 to 100 scale
row,SMILES,"Plant response rating, Kochia"
1,"O=C1NCC(/C=C/c2ccccc2)C1C(=O)Nc1cccc(F)c1F (stereo not drawn) [Compound 33, N-(2,3-difluorophenyl)-2-oxo-4-[(1E)-2-phenylethenyl]-3-pyrrolidinecarboxamide]",0

# Tested on: galium (catchweed bedstraw, Galium aparine)
# Experiment: Test A postemergence, galium
# Format: in vivo
# Settings: 125 g ai/ha, 0 to 100 scale
# In short: as §1
row,SMILES,"Plant response rating, Galium"
1,"O=C1NCC(/C=C/c2ccccc2)C1C(=O)Nc1cccc(F)c1F (stereo not drawn) [Compound 33, N-(2,3-difluorophenyl)-2-oxo-4-[(1E)-2-phenylethenyl]-3-pyrrolidinecarboxamide]",0

# Same assay, conditions: 500 g ai/ha, 0 to 100 scale
row,SMILES,"Plant response rating, Galium"
1,"O=C1NCC(/C=C/c2ccccc2)C1C(=O)Nc1cccc(F)c1F (stereo not drawn) [Compound 33, N-(2,3-difluorophenyl)-2-oxo-4-[(1E)-2-phenylethenyl]-3-pyrrolidinecarboxamide]",0

# Tested on: sedge, umbrella (small-flower umbrella sedge, Cyperus difformis)
# Experiment: Test B flooded paddy test, sedge, umbrella
# Format: in vivo
# Settings: Flood, 250 g ai/ha; scale of 0 to 100 where 0 is no effect and 100 is complete control; 13 to 15 d
# In short: as §2
row,SMILES,"Plant response rating, Sedge, Umbrella"
1,"O=C1NCC(/C=C/c2ccccc2)C1C(=O)Nc1cccc(F)c1F (stereo not drawn) [Compound 33, N-(2,3-difluorophenyl)-2-oxo-4-[(1E)-2-phenylethenyl]-3-pyrrolidinecarboxamide]",0

# Tested on: barnyardgrass (Echinochloa crus-galli)
# Experiment: Test B flooded paddy test, barnyardgrass
# Format: in vivo
# Settings: Flood, 250 g ai/ha; scale of 0 to 100 where 0 is no effect and 100 is complete control; 13 to 15 d
# In short: as §2
row,SMILES,"Plant response rating, Barnyardgrass"
1,"O=C1NCC(/C=C/c2ccccc2)C1C(=O)Nc1cccc(F)c1F (stereo not drawn) [Compound 33, N-(2,3-difluorophenyl)-2-oxo-4-[(1E)-2-phenylethenyl]-3-pyrrolidinecarboxamide]",40

# Tested on: blackgrass (Alopecurus myosuroides)
# Experiment: Test A postemergence, blackgrass
# Format: in vivo
# Settings: 125 g ai/ha, 0 to 100 scale
# In short: as §1
row,SMILES,"Plant response rating, Blackgrass"
1,"O=C1NCC(/C=C/c2ccccc2)C1C(=O)Nc1cccc(F)c1F (stereo not drawn) [Compound 33, N-(2,3-difluorophenyl)-2-oxo-4-[(1E)-2-phenylethenyl]-3-pyrrolidinecarboxamide]",0

# Same assay, conditions: 500 g ai/ha, 0 to 100 scale
row,SMILES,"Plant response rating, Blackgrass"
1,"O=C1NCC(/C=C/c2ccccc2)C1C(=O)Nc1cccc(F)c1F (stereo not drawn) [Compound 33, N-(2,3-difluorophenyl)-2-oxo-4-[(1E)-2-phenylethenyl]-3-pyrrolidinecarboxamide]",0

# Tested on: corn (Zea mays)
# Experiment: Test A postemergence, corn
# Format: in vivo
# Settings: 125 g ai/ha, 0 to 100 scale
# In short: as §1
row,SMILES,"Plant response rating, Corn"
1,"O=C1NCC(/C=C/c2ccccc2)C1C(=O)Nc1cccc(F)c1F (stereo not drawn) [Compound 33, N-(2,3-difluorophenyl)-2-oxo-4-[(1E)-2-phenylethenyl]-3-pyrrolidinecarboxamide]",0

# Same assay, conditions: 500 g ai/ha, 0 to 100 scale
row,SMILES,"Plant response rating, Corn"
1,"O=C1NCC(/C=C/c2ccccc2)C1C(=O)Nc1cccc(F)c1F (stereo not drawn) [Compound 33, N-(2,3-difluorophenyl)-2-oxo-4-[(1E)-2-phenylethenyl]-3-pyrrolidinecarboxamide]",0

# Tested on: rice (Oryza sativa)
# Experiment: Test B flooded paddy test, rice
# Format: in vivo
# Settings: Flood, 250 g ai/ha; scale of 0 to 100 where 0 is no effect and 100 is complete control; 13 to 15 d
# In short: as §2
row,SMILES,"Plant response rating, Rice"
1,"O=C1NCC(/C=C/c2ccccc2)C1C(=O)Nc1cccc(F)c1F (stereo not drawn) [Compound 33, N-(2,3-difluorophenyl)-2-oxo-4-[(1E)-2-phenylethenyl]-3-pyrrolidinecarboxamide]",0

# Tested on: barnyardgrass (Echinochloa crus-galli)
# Experiment: Test A preemergence, barnyardgrass
# Format: in vivo
# Settings: 125 g ai/ha, 0 to 100 scale
# In short: as §1
row,SMILES,"Plant response rating, Barnyardgrass"
1,"O=C1NCC(/C=C/c2ccccc2)C1C(=O)Nc1cccc(F)c1F (stereo not drawn) [Compound 33, N-(2,3-difluorophenyl)-2-oxo-4-[(1E)-2-phenylethenyl]-3-pyrrolidinecarboxamide]",50

# Same assay, conditions: 500 g ai/ha, 0 to 100 scale
row,SMILES,"Plant response rating, Barnyardgrass"
1,"O=C1NCC(/C=C/c2ccccc2)C1C(=O)Nc1cccc(F)c1F (stereo not drawn) [Compound 33, N-(2,3-difluorophenyl)-2-oxo-4-[(1E)-2-phenylethenyl]-3-pyrrolidinecarboxamide]",90

# Tested on: ryegrass, It. (Italian ryegrass, Lolium multiflorum)
# Experiment: Test A preemergence, ryegrass, It.
# Format: in vivo
# Settings: 125 g ai/ha, 0 to 100 scale
# In short: as §1
row,SMILES,"Plant response rating, Ryegrass, It."
1,"O=C1NCC(/C=C/c2ccccc2)C1C(=O)Nc1cccc(F)c1F (stereo not drawn) [Compound 33, N-(2,3-difluorophenyl)-2-oxo-4-[(1E)-2-phenylethenyl]-3-pyrrolidinecarboxamide]",0

# Same assay, conditions: 500 g ai/ha, 0 to 100 scale
row,SMILES,"Plant response rating, Ryegrass, It."
1,"O=C1NCC(/C=C/c2ccccc2)C1C(=O)Nc1cccc(F)c1F (stereo not drawn) [Compound 33, N-(2,3-difluorophenyl)-2-oxo-4-[(1E)-2-phenylethenyl]-3-pyrrolidinecarboxamide]",0
